Assay results reported in the OligoGym collection.
After the bases stand the sugars from the 5' end (letter, count) and the backbone: PS all phosphorothioate, else s phosphorothioate and o phosphodiester by linkage. Methylation of C is not given here. e = 2'-O-(2-methoxyethyl) (MOE); k = constrained ethyl (cEt); d = 2'-deoxy (DNA); m = 2'-O-methyl

Target: HSD17B13
Conditions: ASO, HepaRG

Sequence | target mRNA inhibition (1 µM) [%] | also measured
CTGCAACTTTTAGTCA (sugars k3 d10 k3, PS) | 21 | –
CTGCTGCTAGTGCCAA (sugars k3 d10 k3, PS) | 57 | –
CTGGAACAATATGGGA (sugars k3 d10 k3, PS) | 38 | –
CTGGGATAGTGGAGGA (sugars k3 d10 k3, PS) | 21 | –
CTGGTTTCATAACCTA (sugars k3 d10 k3, PS) | 9 | –
CTGTAGGACTCTGCTC (sugars k3 d10 k3, PS) | 48 | –
CTGTCTCCAATACAGG (sugars k3 d10 k3, PS) | 29 | –
CTGTGTTAGCTTTAAT (sugars k3 d1 m1 d8 k3, PS) | 41 | –
CTGTGTTAGCTTTAAT (sugars k3 d9 k3 e1, PS) | 50 | –
CTGTTGCAAGTTCTTC (sugars k3 d10 k3, PS) | 85 | target mRNA inhibition (0.02 µM): 0%; target mRNA inhibition (0.078 µM): 0%; target mRNA inhibition (0.313 µM): 49%; target mRNA inhibition (1.25 µM): 73%; target mRNA inhibition (5 µM): 88%
CTTAAACCTTCCCTGT (sugars k3 d10 k3, PS) | 22 | –
CTTAAACCTTCCCTGT (sugars kkdddddddddkekek, PS) | 36 | –
CTTACTAAGGAAATTC (sugars k3 d10 k3, PS) | 19 | –
CTTAGCTGTGCACTCA (sugars k3 d10 k3, PS) | 60 | –
CTTAGTTCATTGTGAT (sugars k3 d10 k3, PS) | 69 | –
CTTATGAAGTTAGTAT (sugars k3 d10 k3, PS) | 43 | –
CTTATGTAATAGCCAG (sugars k3 d10 k3, PS) | 74 | –
CTTATTAAGTACTGTG (sugars k3 d10 k3, PS) | 0 | –
CTTCACCTGATTTAGA (sugars k3 d10 k3, PS) | 7 | –
CTTCATAGTGGACTTC (sugars k3 d9 k3 e1, PS) | 57 | –
CTTCATAGTGGACTTC (sugars k3 d10 k3, PS) | 79 | target mRNA inhibition (0.02 µM): 3%; target mRNA inhibition (0.078 µM): 4%; target mRNA inhibition (0.313 µM): 28%; target mRNA inhibition (1.25 µM): 66%; target mRNA inhibition (5 µM): 93%
CTTCATCCTTGGTGCT (sugars k3 d10 k3, PS) | 30 | –
CTTGAACAGTCTTAAA (sugars k3 d1 m1 d8 k3, PS) | 49 | –

Sequence | target mRNA inhibition (1 µM) [%] | also measured
CTTGAATGAGTGGTCT (sugars k3 d10 k3, PS) | 64 | target mRNA inhibition (0.02 µM): 10%; target mRNA inhibition (0.078 µM): 16%; target mRNA inhibition (0.313 µM): 46%; target mRNA inhibition (1.25 µM): 69%; target mRNA inhibition (5 µM): 88%
CTTGATCTCTTAGCTG (sugars k3 d1 m1 d8 k3, PS) | 32 | –
CTTGATCTCTTAGCTG (sugars kkdddddddddkekek, PS) | 49 | –
CTTGATGATTCTGACT (sugars k3 d10 k3, PS) | 57 | –
CTTGATGTAGTGGGAG (sugars k3 d1 m1 d8 k3, PS) | 67 | –
CTTGATTAAGGCAAAG (sugars k3 d10 k3, PS) | 38 | –
CTTGCAGAAATTCACC (sugars k3 d10 k3, PS) | 40 | –
CTTTCATAGGGAGACC (sugars k3 d10 k3, PS) | 73 | target mRNA inhibition (0.02 µM): 20%; target mRNA inhibition (0.078 µM): 2%; target mRNA inhibition (0.313 µM): 54%; target mRNA inhibition (1.25 µM): 75%; target mRNA inhibition (5 µM): 86%
CTTTGAGACTCTTGTT (sugars k3 d10 k3, PS) | 61 | –
CTTTGCAGCATTGATT (sugars k3 d1 m1 d8 k3, PS) | 19 | –
CTTTGCAGCATTGATT (sugars k3 d10 k3, PS) | 47 | –
GAAACCTTCATGCTAG (sugars k3 d10 k3, PS) | 31 | –
GAAATATAGAGGGTCC (sugars k3 d10 k3, PS) | 22 | –
GAAATTCACCTTGACT (sugars k3 d10 k3, PS) | 41 | –
GAAATTGATACACCAA (sugars k3 d9 k3 e1, PS) | 64 | –
GAACAATATGGGATGA (sugars k3 d1 m1 d8 k3, PS) | 50 | –
GAACAATATGGGATGA (sugars k3 d9 k3 e1, PS) | 52 | –
GAACACTTTCACTGGG (sugars k3 d10 k3, PS) | 0 | –
GAAGAAGGACTTTCAT (sugars k3 d10 k3, PS) | 40 | –
GAAGCCACTGTGACGA (sugars k3 d10 k3, PS) | 58 | –
GAAGTGCTTTTGTGAT (sugars k3 d10 k3, PS) | 34 | –
GAAGTGTAATGCTCCC (sugars k3 d10 k3, PS) | 71 | –
